27 molecules from patent US20090247559A1 (Exelixis, Inc., priority 2007, published 2009) can be followed below.

In experiment [1] the target is CK2 (Homo sapiens, UniProt P68400). The experiment in a line: CK2 inhibition, biochemical chemiluminescence holoenzyme assay (Kinase Glo, IC50 determination). To be noted: Table 1 activity class; symbol given only if active; read-out: CK2 IC50 (Activity C). In outline: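 Holoenzyme CK2 assay; compounds pre-incubated with substrate and enzyme, then reacted 150 min at 24-27° C. Remaining ATP measured as luminescence with Kinase Glo, and IC50 derived from the signal.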

In experiment [2] the target is CDC7 (Homo sapiens, UniProt O00311). The experiment can be described thus: CDC7 inhibition, biochemical chemiluminescence assay (Kinase Glo, IC50 determination). Put shortly:
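CDC7 enzyme preincubated with compound 10 min at ambient temperature, then ATP mix in Tris Base added; reaction 90 min at 24-27 °C. Remaining ATP quantified by Kinase Glo luminescence to give IC50.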
For orientation: Kinase-Glo measures the ATP left after a reaction by luminescence.

The target in experiment [3] is PIM (PIM-1, PIM-2, and/or PIM-3). The experiment can be described thus: PIM-1, PIM-2 and PIM-3 inhibition, biochemical chemiluminescence assays (Kinase Glo, IC50 determination). The following applies: Table 1 activity class; PIM refers to PIM-1, PIM-2, and/or PIM-3; read-out: PIM IC50 (Activity B).
Where [4] appears, read: Table 1 activity class, symbol given only if active, read-out: CDC7 IC50 (Activity A).
[5] abbreviates: compounds in Table 1, read-out: CDC7 IC50 value.

Molecules are shown by their SMILES. Structures can show the parent of a compound that is named as a salt. Where two headings read alike, the source gives them in different places.

As usually defined, the IC50 is the midpoint of a concentration-inhibition curve.

Sequence of CK2 (P68400 whole entry): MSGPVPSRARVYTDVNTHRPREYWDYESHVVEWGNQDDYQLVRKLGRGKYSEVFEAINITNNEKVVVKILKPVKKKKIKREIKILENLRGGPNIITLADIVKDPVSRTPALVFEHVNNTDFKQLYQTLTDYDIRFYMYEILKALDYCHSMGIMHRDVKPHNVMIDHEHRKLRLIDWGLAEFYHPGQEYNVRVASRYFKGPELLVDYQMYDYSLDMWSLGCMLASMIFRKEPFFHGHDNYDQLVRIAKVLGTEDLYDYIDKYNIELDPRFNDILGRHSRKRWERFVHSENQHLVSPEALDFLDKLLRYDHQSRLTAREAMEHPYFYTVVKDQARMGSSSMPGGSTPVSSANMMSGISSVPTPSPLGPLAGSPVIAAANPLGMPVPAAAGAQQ
Sequence of CK2 (P67870 whole entry partner): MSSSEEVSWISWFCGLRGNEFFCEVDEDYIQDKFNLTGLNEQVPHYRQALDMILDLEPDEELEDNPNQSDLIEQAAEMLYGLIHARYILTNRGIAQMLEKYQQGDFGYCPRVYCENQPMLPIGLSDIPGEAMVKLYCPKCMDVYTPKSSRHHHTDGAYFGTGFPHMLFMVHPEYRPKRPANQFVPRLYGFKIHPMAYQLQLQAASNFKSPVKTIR
Sequence of CDC7 (O00311 whole entry): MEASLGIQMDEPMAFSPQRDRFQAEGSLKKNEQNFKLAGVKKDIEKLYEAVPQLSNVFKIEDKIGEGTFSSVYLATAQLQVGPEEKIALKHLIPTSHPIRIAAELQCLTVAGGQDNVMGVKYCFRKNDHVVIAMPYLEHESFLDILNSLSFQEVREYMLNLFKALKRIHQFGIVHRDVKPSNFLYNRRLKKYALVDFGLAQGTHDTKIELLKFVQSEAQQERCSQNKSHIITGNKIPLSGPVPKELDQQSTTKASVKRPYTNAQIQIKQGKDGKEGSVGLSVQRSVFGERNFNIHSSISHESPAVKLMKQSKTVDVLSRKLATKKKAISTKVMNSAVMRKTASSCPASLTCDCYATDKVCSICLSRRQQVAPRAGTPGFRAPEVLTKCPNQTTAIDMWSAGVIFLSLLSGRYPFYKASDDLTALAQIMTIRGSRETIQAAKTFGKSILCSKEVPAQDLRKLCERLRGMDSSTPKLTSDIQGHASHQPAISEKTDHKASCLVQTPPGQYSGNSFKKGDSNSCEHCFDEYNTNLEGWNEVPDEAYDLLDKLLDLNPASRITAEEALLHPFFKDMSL
Sequence of CDC7 (Q9UBU7 whole entry partner): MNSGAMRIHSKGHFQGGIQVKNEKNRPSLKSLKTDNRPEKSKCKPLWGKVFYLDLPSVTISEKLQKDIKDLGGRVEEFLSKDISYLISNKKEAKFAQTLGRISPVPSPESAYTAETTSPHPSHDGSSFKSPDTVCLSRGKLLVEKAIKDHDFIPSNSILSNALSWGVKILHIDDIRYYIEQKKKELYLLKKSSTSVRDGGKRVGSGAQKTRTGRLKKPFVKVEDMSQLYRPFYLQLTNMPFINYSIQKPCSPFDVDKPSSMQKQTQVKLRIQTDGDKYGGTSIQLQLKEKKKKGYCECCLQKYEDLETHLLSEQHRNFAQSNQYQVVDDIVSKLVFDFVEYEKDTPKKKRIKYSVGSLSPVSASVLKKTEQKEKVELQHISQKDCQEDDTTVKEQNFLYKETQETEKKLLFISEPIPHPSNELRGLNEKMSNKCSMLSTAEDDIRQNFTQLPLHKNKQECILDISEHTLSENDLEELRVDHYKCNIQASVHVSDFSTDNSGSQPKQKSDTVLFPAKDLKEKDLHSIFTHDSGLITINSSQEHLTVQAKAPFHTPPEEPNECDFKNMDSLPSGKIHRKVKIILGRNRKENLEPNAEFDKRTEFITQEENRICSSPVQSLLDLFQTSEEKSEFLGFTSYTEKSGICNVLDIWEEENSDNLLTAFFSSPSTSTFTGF

With `Nc1cc(-c2nc3c(oc4ccc(Br)cc43)c(=O)[nH]2)c(Cl)cn1` [Compound 173, 2-(2-amino-5-chloropyridin-4-yl)-8-bromo[1]benzofuro[3,2-d]pyrimidin-4(3H)-one], the 50% inhibitory concentration (IC50) is less than 10 µM in experiment [1], less than 10 µM in experiment [2] (setting [4]), less than 0.1 µM in experiment [2] (setting [5]) and less than 10 µM in experiment [3].
Regarding `NC(c1ccccc1)c1nc2c(oc3ccc(Br)cc32)c(=O)[nH]1` (stereo not shown) [Compound 174, 2-[amino(phenyl)methyl]-8-bromo[1]benzofuro[3,2-d]pyrimidin-4(3H)-one], the IC50 in experiment [1] was less than 10 µM; in experiment [2] (setting [4]) it was less than 10 µM; in experiment [2] (setting [5]) it was less than 0.1 µM; in experiment [3] it was less than 10 µM.
Consider `CC(N)c1nc2c(oc3ccc(Br)cc32)c(=O)[nH]1` (stereo not shown) [Compound 175, 2-(1-aminoethyl)-8-bromo[1]benzofuro[3,2-d]pyrimidin-4(3H)-one], for which the IC50 in experiment [1] is less than 10 µM; in experiment [2] (setting [4]), less than 10 µM; in experiment [2] (setting [5]), less than 0.1 µM; in experiment [3], less than 10 µM.
Regarding `O=C(Nc1ccc(-c2nc3c(oc4ccc(Br)cc43)c(=O)[nH]2)c(Cl)c1)C1CCNC1` (stereo not shown) [Compound 178, N-[4-(8-bromo-4-oxo-3,4-dihydro[1]benzofuro[3,2-d]pyrimidin-2-yl)-3-chlorophenyl]pyrrolidine-3-carboxamide], the IC50 in experiment [1], in experiment [2] (setting [4]) and in experiment [3] was less than 10 µM throughout.
Regarding `O=C(Cc1c[nH]cn1)Nc1ccc(-c2nc3c(oc4ccc(Br)cc43)c(=O)[nH]2)c(Cl)c1` [Compound 182, N-[4-(8-bromo-4-oxo-3,4-dihydro[1]benzofuro[3,2-d]pyrimidin-2-yl)-3-chlorophenyl]-2-(1H-imidazol-4-yl)acetamide], the IC50 in experiment [1], in experiment [2] (setting [4]) and in experiment [3] was less than 10 µM in each case.
For `CN1CCCC(c2nc3c(oc4ccc(Br)cc43)c(=O)[nH]2)C1` (stereo not shown) [Compound 184, dihydrochloride], the IC50 is less than 10 µM in experiment [1], less than 10 µM in experiment [2] (setting [4]), less than 0.1 µM in experiment [2] (setting [5]) and less than 10 µM in experiment [3].
In the case of `CN1CCC(c2nc3c(oc4ccc(Br)cc43)c(=O)[nH]2)CC1` [Compound 185, 8-Bromo-2-(1-methylpiperidin-4-yl)[1]benzofuro[3,2-d]pyrimidin-4(3H)-one], the IC50 in experiment [1] is less than 10 µM; in experiment [2] (setting [4]) it was less than 10 µM; in experiment [2] (setting [5]) it was less than 0.1 µM; in experiment [3], less than 10 µM.
For `O=c1[nH]c(C2CCNC2)nc2c1oc1ccc(Br)cc12` (stereo not shown) [Compound 186, 8-bromo-2-pyrrolidin-3-yl[1]benzofuro[3,2-d]pyrimidin-4(3H)-one], the IC50 in experiment [1] was less than 10 µM; in experiment [2] (setting [4]) it was less than 10 µM; in experiment [2] (setting [5]) it was less than 0.1 µM; in experiment [3], less than 10 µM.
In the case of `CC(C)(NCc1nc2c(oc3ccc(Br)cc32)c(=O)[nH]1)C(=O)O` [Compound 189, N-[(8-bromo-4-oxo-3,4-dihydro[1]benzofuro[3,2-d]pyrimidin-2-yl)methyl]-2-methylalanine], the half-maximal inhibitory concentration (IC50) in experiment [1], in experiment [2] (setting [4]) and in experiment [3] was less than 10 µM throughout.
As for `CC(C)(CN1CCCCC1)NCc1nc2c(oc3ccc(Br)cc32)c(=O)[nH]1` [Compound 191, 8-bromo-2-{[(1,1-dimethyl-2-piperidin-1-ylethyl)amino]methyl}[1]benzofuro[3,2-d]pyrimidin-4(3H)-one], the IC50 was less than 10 µM in experiment [1], less than 10 µM in experiment [2] (setting [4]), less than 0.1 µM in experiment [2] (setting [5]) and less than 10 µM in experiment [3].
For the molecule `O=c1[nH]c(CC2CCCNC2)nc2c1oc1ccc(Br)cc12` (stereo not shown) [Compound 194, 8-bromo-2-(piperidin-3-ylmethyl)[1]benzofuro[3,2-d]pyrimidin-4(3H)-one], the IC50 in experiment [1], in experiment [2] (setting [4]) and in experiment [3] was less than 10 µM in each case.
Take `NCc1nc2c(oc3ccc(Br)cc32)c(=O)[nH]1` [Compound 195, 2-(aminomethyl)-8-bromo[1]benzofuro[3,2-d]pyrimidin-4(3H)-one]: the concentration for half-maximal inhibition (IC50) in experiment [1], in experiment [2] (setting [4]) and in experiment [3] was less than 10 µM throughout.
In the case of `O=c1[nH]c(-c2ccc(NCCC3CCNCC3)cc2Cl)nc2c1oc1ccc(Br)cc12` [Compound 197, 8-bromo-2-{2-chloro-4-[(2-piperidin-4-ylethyl)amino]phenyl}[1]benzofuro[3,2-d]pyrimidin-4(3H)-one], the IC50 in experiment [1], in experiment [2] (setting [4]) and in experiment [3] was less than 10 µM in each case.
For `O=c1[nH]c(C2CNC2)nc2c1oc1ccc(Br)cc12` [Compound 198, 2-Azetidin-3-yl-8-bromo[1]benzofuro[3,2-d]pyrimidin-4(3H)-one], the half-maximal inhibitory concentration (IC50) in experiment [1] was less than 10 µM; in experiment [2] (setting [4]) it was less than 10 µM; in experiment [2] (setting [5]), less than 0.1 µM; in experiment [3], less than 10 µM.
For the molecule `O=c1[nH]c(CNC2CCCC2)nc2c1oc1ccc(Br)cc12` [Compound 199, 8-bromo-2-[(cyclopentylamino)methyl][1]benzofuro[3,2-d]pyrimidin-4(3H)-one], the IC50 was less than 10 µM in experiment [1], less than 10 µM in experiment [2] (setting [4]), less than 0.1 µM in experiment [2] (setting [5]) and less than 10 µM in experiment [3].
Take `CC1CCN(Cc2nc3c(oc4ccc(Br)cc43)c(=O)[nH]2)CC1` [Compound 201, 8-bromo-2-[(4-methylpiperidin-1-yl)methyl][1]benzofuro[3,2-d]pyrimidin-4(3H)-one]: the IC50 in experiment [1] was less than 10 µM; in experiment [2] (setting [4]) it was less than 10 µM; in experiment [2] (setting [5]) it was less than 0.1 µM; in experiment [3], less than 10 µM.
Consider `Nc1n[nH]c2cc(-c3nc4c(oc5ccc(Br)cc54)c(=O)[nH]3)c(Cl)cc12` [Compound 205, 2-(3-amino-5-chloro-1H-indazol-6-yl)-8-bromo[1]benzofuro[3,2-d]pyrimidin-4(3H)-one], for which the IC50 in experiment [1], in experiment [2] (setting [4]) and in experiment [3] was less than 10 µM throughout.
On to `O=c1[nH]c(Nc2cccnc2)nc2c1oc1ccc(Br)cc12` [Compound 214, 8-bromo-2-(pyridin-3-ylamino)[1]benzofuro[3,2-d]pyrimidin-4(3H)-one], for which the IC50 in experiment [1] was less than 10 µM; in experiment [2] (setting [4]) it was less than 10 µM; in experiment [2] (setting [5]), less than 0.1 µM; in experiment [3] it was less than 10 µM.
With `C[C@@H]1CNC[C@H](C)N1Cc1nc2c(oc3ccc(Br)cc32)c(=O)[nH]1` [Compound 216, 8-bromo-2-{[(2R,6S)-2,6-dimethylpiperazin-1-yl]methyl}[1]benzofuro[3,2-d]pyrimidin-4(3H)-one], the IC50 is less than 10 µM in experiment [1], less than 10 µM in experiment [2] (setting [4]), less than 0.1 µM in experiment [2] (setting [5]) and less than 10 µM in experiment [3].
`O=C(CC1CCNCC1)Nc1ccc(-c2nc3c(oc4ccc(Br)cc43)c(=O)[nH]2)c(Cl)c1` [Compound 217, N-[4-(8-bromo-4-oxo-3,4-dihydro[1]benzofuro[3,2-d]pyrimidin-2-yl)-3-chlorophenyl]-2-piperidin-4-ylacetamide]: the IC50 in experiment [1], in experiment [2] (setting [4]) and in experiment [3] was less than 10 µM in each case.
For `Nc1n[nH]c2ccc(-c3nc4c(oc5ccc(Br)cc54)c(=O)[nH]3)cc12` [Compound 220, 2-(3-amino-1H-indazol-5-yl)-8-bromo[1]benzofuro[3,2-d]pyrimidin-4(3H)-one], the IC50 in experiment [1], in experiment [2] (setting [4]) and in experiment [3] was less than 10 µM in each case.
On to `CN1CC(c2nc3c(oc4ccc(Br)cc43)c(=O)[nH]2)C1` [Compound 221, 8-Bromo-2-(1-methylazetidin-3-yl)[1]benzofuro[3,2-d]pyrimidin-4(3H)-one], for which the concentration for half-maximal inhibition (IC50) in experiment [1] is less than 10 µM; in experiment [2] (setting [4]) it was less than 10 µM; in experiment [2] (setting [5]), less than 0.1 µM; in experiment [3], less than 10 µM.
For the molecule `NC1CCC(c2nc3c(oc4ccc(Br)cc43)c(=O)[nH]2)CC1` (stereo not shown) [Compound 223, 2-(4-Aminocyclohexyl)-8-bromo[1]benzofuro[3,2-d]pyrimidin-4(3H)-one], the IC50 in experiment [1] was less than 10 µM; in experiment [2] (setting [4]), less than 10 µM; in experiment [2] (setting [5]), less than 0.1 µM; in experiment [3] it was less than 10 µM.
With `O=C(NCc1ccccc1Cl)C1CCN(Cc2nc3c(oc4ccc(Br)cc43)c(=O)[nH]2)C1` (stereo not shown) [Compound 224, 1-[(8-bromo-4-oxo-3,4-dihydro[1]benzofuro[3,2-d]pyrimidin-2-yl)methyl]-N-[(2-chlorophenyl)methyl]pyrrolidine-3-carboxamide], the 50% inhibitory concentration (IC50) in experiment [1], in experiment [2] (setting [4]) and in experiment [3] was less than 10 µM in each case.
In the case of `NCCNc1nc2c(oc3ccc(Br)cc32)c(=O)[nH]1` [Compound 231, 2-[(2-aminoethyl)amino]-8-bromo[1]benzofuro[3,2-d]pyrimidin-4(3H)-one], the IC50 in experiment [1] was less than 10 µM; in experiment [2] (setting [4]), less than 10 µM; in experiment [2] (setting [5]), less than 0.1 µM; in experiment [3], less than 10 µM.
Regarding `CCC(C)NCc1nc2c(oc3ccc(Br)cc32)c(=O)[nH]1` (stereo not shown) [Compound 232, 8-bromo-2-{[(1-methylpropyl)amino]methyl}[1]benzofuro[3,2-d]pyrimidin-4(3H)-one], the IC50 is less than 10 µM in experiment [1], less than 10 µM in experiment [2] (setting [4]), less than 0.1 µM in experiment [2] (setting [5]) and less than 10 µM in experiment [3].
For `O=c1[nH]c(CNCc2ccccc2Cl)nc2c1oc1ccc(Br)cc12` [Compound 235, 8-bromo-2-({[(2-chlorophenyl)methyl]amino}methyl)[1]benzofuro[3,2-d]pyrimidin-4(3H)-one], the IC50 in experiment [1], in experiment [2] (setting [4]) and in experiment [3] was less than 10 µM throughout.
